This is an account of results in patent publication US10961236B2, “(S)-2-(1-cyclopropylethyl)-5-(4-methyl-2-((6-(2-oxopyrrolidin-1-yl)pyridin-2-yl)amino) thiazol-5-yl)-7-(methylsulfonyl)isoindolin-1-one as a phosphatidylinositol 3-kinase inhibitor” (AstraZeneca AB, priority 2016, dated 2021).

What all share (type): biochemical
Assay [1] addresses recombinant human PI3Kδ (6-His(p110-p85α)) (Homo sapiens (Human), UniProt O00329). In words: Enzymatic activity assay for recombinant human PI3Kδ (ADP-Glo). As to conditions: 0.6 nM PI3Kδ, 20 μM ATP, 80 μM DiC8-PIP2, ADP-Glo. Put shortly: (§1)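 ADP-Glo luminescence after DiC8-PIP2 (80 μM) phosphorylation with 20 μM ATP in 50 mM Tris pH 7.4, 3 mM MgCl2, 2.1 mM DTT, 0.05% CHAPS at room temperature. Enzyme 1.2 nM PI3Kγ or 0.6 nM PI3Kδ; inhibitors pre-incubated 15 min, then 60 min reaction.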

For assay [2], the target named is recombinant human PI3Kα (6-His(p110-p85α)) (Homo sapiens (Human), UniProt P42336). In words: Enzymatic activity assay for recombinant human PI3Kα (ADP-Glo). Particulars: 1.2 nM PI3Kα, 20 μM ATP, 80 μM DiC8-PIP2, ADP-Glo. The method in brief: (§2)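 ADP-Glo luminescence after DiC8-PIP2 phosphorylation at RT: 80 μM lipid substrate, 20 μM ATP, 1.2 nM enzyme (0.6 nM for δ) in Tris pH 7.4 with MgCl2, DTT, CHAPS. Compounds pre-incubated 15 min with enzyme, then 60 min reaction; DMSO ≤1%.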

Assay [3] deals with recombinant human PI3Kβ (6-His(p110-p85α)) (Homo sapiens (Human), UniProt P42338). As to the kind of experiment: Enzymatic activity assay for recombinant human PI3Kβ (ADP-Glo). Particulars: 1.2 nM PI3Kβ, 20 μM ATP, 80 μM DiC8-PIP2, ADP-Glo. The method in brief:
as §2
(ADP-Glo first removes unused ATP, then detects ADP through luciferase.)

Assay [4] addresses recombinant human PI3Kγ ((aa144-1102)-6His) (Homo sapiens (Human), UniProt P48736). As to the kind of experiment: Enzymatic activity assay for recombinant human PI3Kγ (ADP-Glo). As to conditions: 1.2 nM PI3Kγ, 20 μM ATP, 80 μM DiC8-PIP2, ADP-Glo. Put shortly: as §1

recombinant human PI3Kβ (6-His(p110-p85α)), sequence (P42338 whole entry): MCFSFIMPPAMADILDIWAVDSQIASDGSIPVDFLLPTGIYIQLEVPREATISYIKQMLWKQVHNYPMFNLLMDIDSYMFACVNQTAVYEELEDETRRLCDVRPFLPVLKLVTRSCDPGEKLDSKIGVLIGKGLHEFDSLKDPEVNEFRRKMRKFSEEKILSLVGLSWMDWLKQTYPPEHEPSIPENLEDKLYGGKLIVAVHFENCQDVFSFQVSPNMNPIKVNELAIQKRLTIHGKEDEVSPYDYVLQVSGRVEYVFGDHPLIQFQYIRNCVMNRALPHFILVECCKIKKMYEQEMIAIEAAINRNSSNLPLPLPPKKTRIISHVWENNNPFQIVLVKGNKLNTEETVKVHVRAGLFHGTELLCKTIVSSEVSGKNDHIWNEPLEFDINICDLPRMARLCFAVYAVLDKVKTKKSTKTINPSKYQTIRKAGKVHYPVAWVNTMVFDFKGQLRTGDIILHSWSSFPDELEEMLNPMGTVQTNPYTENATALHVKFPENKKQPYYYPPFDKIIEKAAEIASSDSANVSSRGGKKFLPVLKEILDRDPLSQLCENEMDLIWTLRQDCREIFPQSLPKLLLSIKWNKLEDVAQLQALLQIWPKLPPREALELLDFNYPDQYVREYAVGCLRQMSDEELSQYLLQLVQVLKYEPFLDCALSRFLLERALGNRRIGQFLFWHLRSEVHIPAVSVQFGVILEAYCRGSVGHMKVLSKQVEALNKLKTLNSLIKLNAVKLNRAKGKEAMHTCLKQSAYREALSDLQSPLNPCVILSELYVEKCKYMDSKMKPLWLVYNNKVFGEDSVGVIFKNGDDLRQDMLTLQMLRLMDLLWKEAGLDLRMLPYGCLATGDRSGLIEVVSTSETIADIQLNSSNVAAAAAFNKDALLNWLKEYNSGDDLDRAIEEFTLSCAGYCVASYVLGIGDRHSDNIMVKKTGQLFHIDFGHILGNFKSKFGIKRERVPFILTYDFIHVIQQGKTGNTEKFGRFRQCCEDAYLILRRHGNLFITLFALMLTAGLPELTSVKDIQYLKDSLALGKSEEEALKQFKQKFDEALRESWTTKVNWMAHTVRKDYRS
recombinant human PI3Kβ (6-His(p110-p85α)), sequence (P27986 whole entry partner): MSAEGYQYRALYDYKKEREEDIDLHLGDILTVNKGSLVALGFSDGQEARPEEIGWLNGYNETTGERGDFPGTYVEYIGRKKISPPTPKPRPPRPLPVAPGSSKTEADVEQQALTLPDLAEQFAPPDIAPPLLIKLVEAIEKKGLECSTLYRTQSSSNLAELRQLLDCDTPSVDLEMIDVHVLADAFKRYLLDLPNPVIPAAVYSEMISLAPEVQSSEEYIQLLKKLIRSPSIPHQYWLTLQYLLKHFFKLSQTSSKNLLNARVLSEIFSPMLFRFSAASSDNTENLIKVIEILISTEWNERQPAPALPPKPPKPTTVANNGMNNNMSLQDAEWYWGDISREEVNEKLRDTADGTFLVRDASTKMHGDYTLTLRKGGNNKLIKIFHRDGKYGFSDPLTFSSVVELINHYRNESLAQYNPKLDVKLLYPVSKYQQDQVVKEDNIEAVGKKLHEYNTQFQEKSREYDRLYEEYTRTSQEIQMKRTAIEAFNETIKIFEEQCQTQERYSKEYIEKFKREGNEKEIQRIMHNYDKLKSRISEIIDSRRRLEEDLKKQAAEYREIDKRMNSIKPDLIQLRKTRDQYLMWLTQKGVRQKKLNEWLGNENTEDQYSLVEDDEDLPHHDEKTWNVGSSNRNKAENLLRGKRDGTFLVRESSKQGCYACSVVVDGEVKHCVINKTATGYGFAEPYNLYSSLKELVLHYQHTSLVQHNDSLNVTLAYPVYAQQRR
recombinant human PI3Kα (6-His(p110-p85α)), sequence (P42336 whole entry): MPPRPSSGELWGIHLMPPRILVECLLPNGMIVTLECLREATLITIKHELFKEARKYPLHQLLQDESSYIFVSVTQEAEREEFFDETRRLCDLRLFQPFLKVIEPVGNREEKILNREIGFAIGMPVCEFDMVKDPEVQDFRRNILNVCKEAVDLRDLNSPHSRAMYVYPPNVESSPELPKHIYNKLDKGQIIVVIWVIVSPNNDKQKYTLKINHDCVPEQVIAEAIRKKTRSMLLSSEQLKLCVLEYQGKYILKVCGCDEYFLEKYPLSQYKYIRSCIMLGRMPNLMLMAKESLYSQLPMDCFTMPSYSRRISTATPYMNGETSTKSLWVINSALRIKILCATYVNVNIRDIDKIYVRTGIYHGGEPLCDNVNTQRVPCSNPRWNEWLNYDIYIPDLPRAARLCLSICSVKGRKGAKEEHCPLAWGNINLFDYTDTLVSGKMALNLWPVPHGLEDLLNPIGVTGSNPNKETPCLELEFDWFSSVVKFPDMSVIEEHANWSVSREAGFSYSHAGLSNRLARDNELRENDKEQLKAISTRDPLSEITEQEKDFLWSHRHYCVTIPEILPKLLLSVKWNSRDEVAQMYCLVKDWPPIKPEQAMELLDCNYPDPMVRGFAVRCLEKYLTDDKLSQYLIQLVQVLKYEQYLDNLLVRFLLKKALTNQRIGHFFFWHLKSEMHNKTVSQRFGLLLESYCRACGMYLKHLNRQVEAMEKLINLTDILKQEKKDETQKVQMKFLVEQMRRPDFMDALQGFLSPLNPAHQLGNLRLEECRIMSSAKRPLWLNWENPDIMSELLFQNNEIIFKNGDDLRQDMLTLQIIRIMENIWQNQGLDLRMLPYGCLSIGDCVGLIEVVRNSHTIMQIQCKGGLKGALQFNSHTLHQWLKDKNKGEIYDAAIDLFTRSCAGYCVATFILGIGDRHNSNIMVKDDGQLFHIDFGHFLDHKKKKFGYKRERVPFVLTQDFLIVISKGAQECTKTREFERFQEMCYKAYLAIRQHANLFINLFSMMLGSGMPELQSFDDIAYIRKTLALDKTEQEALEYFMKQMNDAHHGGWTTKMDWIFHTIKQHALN
recombinant human PI3Kα (6-His(p110-p85α)), sequence (P27986 whole entry partner): as the sequence (P27986 whole entry partner) above
recombinant human PI3Kγ ((aa144-1102)-6His), sequence (P48736 144-1102): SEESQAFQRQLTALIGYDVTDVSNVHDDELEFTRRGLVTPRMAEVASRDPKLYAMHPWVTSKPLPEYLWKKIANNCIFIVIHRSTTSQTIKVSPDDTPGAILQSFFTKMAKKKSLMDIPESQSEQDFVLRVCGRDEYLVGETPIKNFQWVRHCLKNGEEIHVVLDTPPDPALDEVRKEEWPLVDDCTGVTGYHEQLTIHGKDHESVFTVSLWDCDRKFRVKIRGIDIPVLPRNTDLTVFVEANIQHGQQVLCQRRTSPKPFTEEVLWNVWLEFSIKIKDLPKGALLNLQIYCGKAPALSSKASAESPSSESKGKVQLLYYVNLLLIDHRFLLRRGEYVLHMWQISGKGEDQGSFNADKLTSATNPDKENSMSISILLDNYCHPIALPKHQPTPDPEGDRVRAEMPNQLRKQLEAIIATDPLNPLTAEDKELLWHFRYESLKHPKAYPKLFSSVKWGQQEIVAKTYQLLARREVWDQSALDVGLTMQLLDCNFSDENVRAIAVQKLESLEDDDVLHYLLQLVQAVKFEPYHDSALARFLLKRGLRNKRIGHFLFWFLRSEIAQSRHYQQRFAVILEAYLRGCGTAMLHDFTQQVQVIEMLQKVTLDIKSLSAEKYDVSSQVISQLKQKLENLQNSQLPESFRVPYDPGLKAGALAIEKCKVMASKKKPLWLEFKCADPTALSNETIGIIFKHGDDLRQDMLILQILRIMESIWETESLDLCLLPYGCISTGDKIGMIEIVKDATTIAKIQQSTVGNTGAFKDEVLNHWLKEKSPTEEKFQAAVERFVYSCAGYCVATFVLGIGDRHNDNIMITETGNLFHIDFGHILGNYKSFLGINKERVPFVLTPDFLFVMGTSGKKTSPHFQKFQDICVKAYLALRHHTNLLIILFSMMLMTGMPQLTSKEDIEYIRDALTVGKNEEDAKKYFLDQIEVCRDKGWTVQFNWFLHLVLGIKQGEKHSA
recombinant human PI3Kδ (6-His(p110-p85α)), sequence (O00329 whole entry): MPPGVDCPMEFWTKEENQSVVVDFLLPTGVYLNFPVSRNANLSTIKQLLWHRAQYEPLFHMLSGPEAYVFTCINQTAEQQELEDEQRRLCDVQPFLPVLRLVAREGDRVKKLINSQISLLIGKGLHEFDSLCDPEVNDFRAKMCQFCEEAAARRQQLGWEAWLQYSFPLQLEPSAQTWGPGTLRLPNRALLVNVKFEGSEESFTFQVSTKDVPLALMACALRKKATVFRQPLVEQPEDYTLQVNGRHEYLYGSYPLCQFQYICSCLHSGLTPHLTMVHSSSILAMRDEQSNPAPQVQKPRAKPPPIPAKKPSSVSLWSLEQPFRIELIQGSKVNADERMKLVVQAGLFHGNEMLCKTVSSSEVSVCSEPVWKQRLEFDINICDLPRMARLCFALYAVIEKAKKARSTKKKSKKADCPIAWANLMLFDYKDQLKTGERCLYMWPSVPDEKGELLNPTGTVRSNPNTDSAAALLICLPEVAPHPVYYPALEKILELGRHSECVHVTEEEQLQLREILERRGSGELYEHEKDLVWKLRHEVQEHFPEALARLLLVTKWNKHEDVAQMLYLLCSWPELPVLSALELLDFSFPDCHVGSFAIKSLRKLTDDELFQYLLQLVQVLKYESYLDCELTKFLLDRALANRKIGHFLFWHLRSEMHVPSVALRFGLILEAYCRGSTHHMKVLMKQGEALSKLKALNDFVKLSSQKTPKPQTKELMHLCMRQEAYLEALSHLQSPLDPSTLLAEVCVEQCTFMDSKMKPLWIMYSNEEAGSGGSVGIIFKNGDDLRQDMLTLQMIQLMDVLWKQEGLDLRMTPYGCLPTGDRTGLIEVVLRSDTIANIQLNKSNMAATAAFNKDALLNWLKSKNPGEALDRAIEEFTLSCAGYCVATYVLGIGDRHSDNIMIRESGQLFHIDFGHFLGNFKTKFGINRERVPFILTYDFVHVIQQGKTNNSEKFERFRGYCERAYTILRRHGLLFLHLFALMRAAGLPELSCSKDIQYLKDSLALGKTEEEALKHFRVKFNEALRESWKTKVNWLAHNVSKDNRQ
recombinant human PI3Kδ (6-His(p110-p85α)), sequence (P27986 whole entry partner): as the sequence (P27986 whole entry partner) above

Regarding `Cc1nc(Nc2cccc(N3CCCC3=O)n2)sc1-c1cc2c(c(S(=O)(=O)NC3COC3)c1)C(=O)N([C@@H](C)C(F)(F)F)C2` [Example 37, 6-(4-Methyl-2-{[6-(2-oxopyrrolidin-1-yl)pyridin-2-yl]amino}-1,3-thiazol-5-yl)-N-(oxetan-3-yl)-3-oxo-2-[(2S)-1,1,1-trifluoropropan-2-yl]-2,3-dihydro-1H-isoindole-4-sulfonamide], the IC50 in assay [1] came to 0.6 nM; in assay [2] it was 67 nM; in assay [3] it was 395 nM; in assay [4], 1.1 nM.
Turning to `CC(=O)Nc1cccc(Nc2nc(C)c(-c3cc4c(c(S(C)(=O)=O)c3)C(=O)N([C@@H](C)C3CC3)C4)s2)n1` [Example 2, N-{6-[(5-{2-[(1S)-1-Cyclopropylethyl]-7-(methylsulfonyl)-1-oxo-2,3-dihydro-1H-isoindol-5-yl}-4-methyl-1,3-thiazol-2-yl)amino]pyridin-2-yl}acetamide], the IC50 in assay [1] came out at 19.6 nM; in assay [2] it was 263 nM; in assay [3] it was 3730 nM; in assay [4] it was 0.9 nM.
On the same counts, the results for `CNS(=O)(=O)c1cc(-c2sc(Nc3cccc(N4C[C@H](C)NCC4=O)n3)nc2C)cc2c1C(=O)N([C@@H](C)C1CC1)C2` [Example 42, 2-[(1S)-1-Cyclopropylethyl]-N-methyl-6-[4-methyl-2-({6-[(5S)-5-methyl-2-oxopiperazin-1-yl]pyridin-2-yl}amino)-1,3-thiazol-5-yl]-3-oxo-2,3-dihydro-1H-isoindole-4-sulfonamide] are 0.8 nM, 69 nM, 286 nM and 1 nM.
In the case of `CC(=O)N(C)c1cccc(Nc2nc(C)c(-c3cc4c(c(S(C)(=O)=O)c3)C(=O)N([C@@H](C)C3CC3)C4)s2)n1` [Example 3, N-{6-[(5-{2-[(1S)-1-Cyclopropylethyl]-7-(methylsulfonyl)-1-oxo-2,3-dihydro-1H-isoindol-5-yl}-4-methyl-1,3-thiazol-2-yl)amino]pyridin-2-yl}-N-methylacetamide], the IC50 in assay [1] was determined as 1.4 nM; in assay [2], 127 nM; in assay [3], 1180 nM; in assay [4], 0.8 nM.
For `Cc1nc(Nc2cccc(N3CCCCC3=O)n2)sc1-c1cc2c(c(S(=O)(=O)NC3COC3)c1)C(=O)N([C@@H](C)C(F)(F)F)C2` [Example 36, 6-(4-Methyl-2-{[6-(2-oxopiperidin-1-yl)pyridin-2-yl]amino}-1,3-thiazol-5-yl)-N-(oxetan-3-yl)-3-oxo-2-[(2S)-1,1,1-trifluoropropan-2-yl]-2,3-dihydro-1H-isoindole-4-sulfonamide], in that order: 1 nM, 50 nM, 113 nM and 1.2 nM.
`Cc1nc(Nc2cccc(N3CCNC3=O)n2)sc1-c1cc2c(c(S(=O)(=O)NC(C)C)c1)C(=O)N([C@@H](C)C(F)(F)F)C2` [Example 30, 6-(4-Methyl-2-{[6-(2-oxoimidazolidin-1-yl)pyridin-2-yl]amino}-1,3-thiazol-5-yl)-3-oxo-N-(propan-2-yl)-2-[(2S)-1,1,1-trifluoropropan-2-yl]-2,3-dihydro-1H-isoindole-4-sulfonamide]: the 50% inhibitory concentration (IC50) was 0.5 nM in assay [1], 74 nM in assay [2], 722 nM in assay [3] and 1.4 nM in assay [4].
For `CNS(=O)(=O)c1cc(-c2sc(Nc3cccc(N4CC[C@H](O)C4=O)n3)nc2C)cc2c1C(=O)N([C@@H](C)C1CC1)C2` [Example 56, 2-[(1S)-1-Cyclopropylethyl]-6-[2-({6-[(3S)-3-hydroxy-2-oxopyrrolidin-1-yl]pyridin-2-yl}amino)-4-methyl-1,3-thiazol-5-yl]-N-methyl-3-oxo-2,3-dihydro-1H-isoindole-4-sulfonamide], the IC50 came out at 0.5 nM in assay [1], 26 nM in assay [2], 249 nM in assay [3] and 1 nM in assay [4].
With `CNS(=O)(=O)c1cc(-c2sc(Nc3cccc(N4CC[C@@H](O)C4=O)n3)nc2C)cc2c1C(=O)N([C@@H](C)C1CC1)C2` [Example 54, 2-[(1S)-1-Cyclopropylethyl]-6-[2-({6-[(3R)-3-hydroxy-2-oxopyrrolidin-1-yl]pyridin-2-yl}amino)-4-methyl-1,3-thiazol-5-yl]-N-methyl-3-oxo-2,3-dihydro-1H-isoindole-4-sulfonamide], the IC50 stood at 0.5 nM in assay [1], 14 nM in assay [2], 325 nM in assay [3] and 0.9 nM in assay [4].
On the same counts, the results for `CNS(=O)(=O)c1cc(-c2sc(Nc3cccc(N4CCN[C@H](C)C4=O)n3)nc2C)cc2c1C(=O)N([C@@H](C)C1CC1)C2` [Example 43, 2-[(1S)-1-Cyclopropylethyl]-N-methyl-6-[4-methyl-2-({6-[(3R)-3-methyl-2-oxopiperazin-1-yl]pyridin-2-yl}amino)-1,3-thiazol-5-yl]-3-oxo-2,3-dihydro-1H-isoindole-4-sulfonamide] are 1 nM, 40 nM, 284 nM and 1 nM.
On the same counts, the results for `Cc1nc(Nc2cccc(N3CCOCC3=O)n2)sc1-c1cc2c(c(S(=O)(=O)NC(C)C)c1)C(=O)N([C@@H](C)C(F)(F)F)C2` [Example 28, 6-(4-Methyl-2-{[6-(3-oxomorpholin-4-yl)pyridin-2-yl]amino}-1,3-thiazol-5-yl)-3-oxo-N-(propan-2-yl)-2-[(2S)-1,1,1-trifluoropropan-2-yl]-2,3-dihydro-1H-isoindole-4-sulfonamide] are 1.2 nM, 318 nM, 798 nM and 2.6 nM.
Consider `Cc1nc(Nc2cccc(N3CCNC3=O)n2)sc1-c1cc2c(c(S(C)(=O)=O)c1)C(=O)N([C@@H](C)C(F)(F)F)C2` [Example 11, 5-(4-Methyl-2-{[6-(2-oxoimidazolidin-1-yl)pyridin-2-yl]amino}-1,3-thiazol-5-yl)-7-(methylsulfonyl)-2-[(2S)-1,1,1-trifluoropropan-2-yl]-2,3-dihydro-1H-isoindol-1-one], for which the IC50 in assay [1] was 1.2 nM; in assay [2] it was 54 nM; in assay [3], 291 nM; in assay [4], 0.8 nM.
On to `CNS(=O)(=O)c1cc(-c2sc(Nc3cccc(N4C(=O)CNC[C@@H]4C)n3)nc2C)cc2c1C(=O)N([C@@H](C)C1CC1)C2` [Example 49, 2-[(1S)-1-Cyclopropylethyl]-N-methyl-6-[4-methyl-2-({6-[(2S)-2-methyl-6-oxopiperazin-1-yl]pyridin-2-yl}amino)-1,3-thiazol-5-yl]-3-oxo-2,3-dihydro-1H-isoindole-4-sulfonamide], for which the IC50 in assay [1] turned out to be 2.6 nM; in assay [2], 87 nM; in assay [3], 800 nM; in assay [4], 1.9 nM.
For `CNS(=O)(=O)c1cc(-c2sc(Nc3cccc(N(C)C(=O)[C@@H](C)OC)n3)nc2C)cc2c1C(=O)N([C@@H](C)C1CC1)C2` [Example 15, (2R)—N-{6-[(5-{2-[(1S)-1-Cyclopropylethyl]-7-(methylsulfamoyl)-1-oxo-2,3-dihydro-1H-isoindol-5-yl}-4-methyl-1,3-thiazol-2-yl)amino]pyridin-2-yl}-2-methoxy-N-methylpropanamide], in that order: 1.2 nM, 89 nM, 1160 nM and 1 nM.
On the same counts, the results for `CNS(=O)(=O)c1cc(-c2sc(Nc3cccc(N4CCCOC4=O)n3)nc2C)cc2c1C(=O)N(C(C)(C)C)C2` [Example 38, 2-tert-Butyl-N-methyl-6-(4-methyl-2-{[6-(2-oxo-1,3-oxazinan-3-yl)pyridin-2-yl]amino}-1,3-thiazol-5-yl)-3-oxo-2,3-dihydro-1H-isoindole-4-sulfonamide] are 1.8 nM, 84 nM, 65 nM and 0.8 nM.
For `Cc1nc(Nc2cccc(N3CCCC3=O)n2)sc1-c1cc2c(c(S(C)(=O)=O)c1)C(=O)N([C@@H](C)C1CC1)C2` [Example 1, 2-[(1S)-1-Cyclopropylethyl]-5-(4-methyl-2-{[6-(2-oxopyrrolidin-1-yl)pyridin-2-yl]amino}-1,3-thiazol-5-yl)-7-(methylsulfonyl)-2,3-dihydro-1H-isoindol-1-one], in that order: 0.7 nM, 55 nM, 1360 nM and 0.9 nM.
On to `CNS(=O)(=O)c1cc(-c2sc(Nc3cccc(N4C(=O)CNC[C@H]4C)n3)nc2C)cc2c1C(=O)N([C@@H](C)C1CC1)C2` [Example 46, 2-[(1S)-1-Cyclopropylethyl]-N-methyl-6-[4-methyl-2-({6-[(2R)-2-methyl-6-oxopiperazin-1-yl]pyridin-2-yl}amino)-1,3-thiazol-5-yl]-3-oxo-2,3-dihydro-1H-isoindole-4-sulfonamide], for which the IC50 in assay [1] amounted to 0.8 nM; in assay [2] it was 24 nM; in assay [3], 123 nM; in assay [4], 1 nM.

The term IC50 denotes the midpoint of a concentration-inhibition curve.
